Measurements from patent US20210215714A1, “COMPLEMENT ALTERNATIVE PATHWAY-ASSOCIATED NEPHROPATHY BIOMARKERS” (Achillion Pharmaceuticals, Inc., priority 2018, published 2021).

Tests used:
AP activity = assay: PNH erythrocyte hemolysis (AP activity in vitro); format: cell-based
Bb = assay: Phase 2a study: Bb levels in plasma; format: in vivo, human; settings: 14-day treatment, patients A-F
Procedure: (§1) Systemic complement proteins were measured in serum and plasma including serum Ba, plasma Bb, serum C3, serum Factor D, serum C4, and % Fragment C3.

C3 = assay: Phase 2a study: C3 levels in serum; format: in vivo, human; settings: 14-day treatment, patients A-F
Procedure: as §1
C3 levels in serum were measured using a quantitative sandwich enzyme immunoassay technique. A monoclonal antibody specific for human C3 was pre-coated onto a micro-assay plate. Standards and samples were pipetted into the wells and any C3 present was bound by the immobilized antibody. After washing away any unbound substances, an enzyme-linked polyclonal antibody specific for human C3 was added to the wells. Following a wash to remove any unbound antibody-enzyme reagent, a substrate solution was added to the wells and color develops in proportion to the amount of C3 bound in the initial step. The color development was stopped and the intensity of the color was measured. […] Patients E and F show similar results.

C3c = assay: Phase 2a study: urinary C3c (Hycult Human C3c Elisa Kit);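 further: urine from C3 glomerulopathy or IC-MPGN patients, C3c quantified by sandwich ELISA with absorbance read at 450 nm against a human C3c standard curve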
Procedure: To measure urinary C3c production, patient urine samples were tested utilizing the Hycult Biotech Human C3c Elisa Kit (HK368) for the quantitation of C3c in urine. […] Urine samples were thawed and centrifuged at 15,000 rpm for one minute. The supernatant was transferred to a fresh tube and diluted with C3c dilution buffer. Samples and standards were added to microtiter wells coated with antibodies recognizing human C3c and incubated at 1 hour at 15-25° C. Following incubation, the wells were washed 4 times with Wash Solution, with an incubation period of 1 minute each time. A biotinylated tracer antibody was added and used to bind to the captured human C3c. Streptavidin-peroxidase conjugate was then added to bind to the biotinylated tracer antibody. Tetramethylbenzidine (TMB) was then added to the Streptavidin-peroxidase conjugate. The enzyme reaction was stopped by the addition of oxalic acid. The absorbance at 450 nm was measured with a spectrophotometer. A standard curve was obtained by plotting the absorbance (linear) versus the corresponding concentrations of the human C3c standards (log). The human C3c concentration of samples, which are run concurrently with the standards, were determined from the standard curve.

## CC(=O)c1nn(CC(=O)N2C[C@H](F)C[C@H]2C(=O)Nc2cccc(Br)n2)c2ccc(-c3cnc(C)nc3)cc12 [Compound 1, (2S,4R)-1-(2-(3-acetyl-5-(2-methylpyrimidin-5-yl)-1H-indazol-1-yl)acetyl)-N-(6-bromopyridin-2-yl)-4-fluoropyrrolidine-2-carboxamide]
AP activity
  IC50: 14 nM
Bb
  Plasma Bb: reduced
C3
  Serum C3: increased
C3c; Patient A, 100 mg TID, Day 1 predose
  uC3c: 25.4 ng/mL
C3c; Patient A, 100 mg TID, Day 4
  uC3c: 15.2 ng/mL
C3c; Patient A, 100 mg TID, Day 7-0 Hour
  uC3c: 7.1 ng/mL
C3c; Patient A, 100 mg TID, Day 10
  uC3c: 9.9 ng/mL
C3c; Patient A, 100 mg TID, Day 14
  uC3c: 3.6 ng/mL
C3c; Patient A, 100 mg TID, Day 15 Taper
  uC3c: 6.8 ng/mL
C3c; Patient A, 100 mg TID, Day 16 Taper
  uC3c: 4.1 ng/mL
C3c; Patient A, 100 mg TID, Day 17 Taper
  uC3c: 8.5 ng/mL
C3c; Patient A, 100 mg TID, Day 21
  uC3c: 7.8 ng/mL
C3c; Patient A, 100 mg TID, Day 24
  uC3c: 11.4 ng/mL
C3c; Patient A, 100 mg TID, Day 28
  uC3c: 15.6 ng/mL
C3c; Patient A, 100 mg TID, Day 49
  uC3c: 32.8 ng/mL
C3c; Patient B, 100 mg TID, Day 1 predose
  uC3c: 771.1 ng/mL
C3c; Patient B, 100 mg TID, Day 4
  uC3c: 369.0 ng/mL
C3c; Patient B, 100 mg TID, Day 7-0 Hour
  uC3c: 289.2 ng/mL
C3c; Patient B, 100 mg TID, Day 10
  uC3c: 256.0 ng/mL
C3c; Patient B, 100 mg TID, Day 14
  uC3c: 462.7 ng/mL
C3c; Patient B, 100 mg TID, Day 15 Taper
  uC3c: 682.8 ng/mL
C3c; Patient B, 100 mg TID, Day 16 Taper
  uC3c: 534.1 ng/mL
C3c; Patient B, 100 mg TID, Day 17 Taper
  uC3c: 290.8 ng/mL
C3c; Patient B, 100 mg TID, Day 21
  uC3c: 513.5 ng/mL
C3c; Patient B, 100 mg TID, Day 24
  uC3c: 744.1 ng/mL
C3c; Patient B, 100 mg TID, Day 28
  uC3c: 285.3 ng/mL
C3c; Patient B, 100 mg TID, Day 49
  uC3c: >1000 ng/mL
C3c; Patient C, 200 mg TID, Day 1 predose
  uC3c: <1.6 ng/mL
C3c; Patient C, 200 mg TID, Day 4
  uC3c: <1.6 ng/mL
C3c; Patient C, 200 mg TID, Day 7-0 Hour
  uC3c: <1.6 ng/mL
C3c; Patient C, 200 mg TID, Day 10
  uC3c: <1.6 ng/mL
C3c; Patient C, 200 mg TID, Day 14
  uC3c: <1.6 ng/mL
C3c; Patient C, 200 mg TID, Day 15 Taper
  uC3c: <1.6 ng/mL
C3c; Patient C, 200 mg TID, Day 17 Taper
  uC3c: <1.6 ng/mL
C3c; Patient C, 200 mg TID, Day 21
  uC3c: <1.6 ng/mL
C3c; Patient C, 200 mg TID, Day 24
  uC3c: 2.1 ng/mL
C3c; Patient C, 200 mg TID, Day 28
  uC3c: <1.6 ng/mL
C3c; Patient C, 200 mg TID, Day 49
  uC3c: <1.6 ng/mL
C3c; Patient D, 200 mg TID, Day 1 predose
  uC3c: 8.8 ng/mL
C3c; Patient D, 200 mg TID, Day 4
  uC3c: 5.3 ng/mL
C3c; Patient D, 200 mg TID, Day 7-0 Hour
  uC3c: <1.6 ng/mL
C3c; Patient D, 200 mg TID, Day 10
  uC3c: <1.6 ng/mL
C3c; Patient D, 200 mg TID, Day 14
  uC3c: 3.7 ng/mL
C3c; Patient D, 200 mg TID, Day 15 Taper
  uC3c: 3.6 ng/mL
C3c; Patient D, 200 mg TID, Day 17 Taper
  uC3c: 4.8 ng/mL
C3c; Patient D, 200 mg TID, Day 21
  uC3c: 5.8 ng/mL
C3c; Patient D, 200 mg TID, Day 24
  uC3c: 5.1 ng/mL
C3c; Patient D, 200 mg TID, Day 28
  uC3c: 5.1 ng/mL
C3c; Patient D, 200 mg TID, Day 49
  uC3c: 7.0 ng/mL
C3c; Patient E, 200 mg TID, Day 1 predose
  uC3c: 159.6 ng/mL
C3c; Patient E, 200 mg TID, Day 4
  uC3c: 137.7 ng/mL
C3c; Patient E, 200 mg TID, Day 7-0 Hour
  uC3c: 168.2 ng/mL
C3c; Patient E, 200 mg TID, Day 10
  uC3c: 123.2 ng/mL
C3c; Patient E, 200 mg TID, Day 14
  uC3c: 64.4 ng/mL
C3c; Patient E, 200 mg TID, Day 15 Taper
  uC3c: 39.7 ng/mL
C3c; Patient E, 200 mg TID, Day 16 Taper
  uC3c: 46.8 ng/mL
C3c; Patient E, 200 mg TID, Day 17 Taper
  uC3c: 107.0 ng/mL
C3c; Patient E, 200 mg TID, Day 21
  uC3c: 41.2 ng/mL
C3c; Patient E, 200 mg TID, Day 24
  uC3c: 89.6 ng/mL
C3c; Patient E, 200 mg TID, Day 28
  uC3c: 97.8 ng/mL
C3c; Patient E, 200 mg TID, Day 49
  uC3c: 120.3 ng/mL
C3c; Patient F, 200 mg TID, Day 1 predose
  uC3c: 216.3 ng/mL
C3c; Patient F, 200 mg TID, Day 4
  uC3c: 63.0 ng/mL
C3c; Patient F, 200 mg TID, Day 7-0 Hour
  uC3c: 25.8 ng/mL
C3c; Patient F, 200 mg TID, Day 10
  uC3c: 43.9 ng/mL
C3c; Patient F, 200 mg TID, Day 14
  uC3c: 31.8 ng/mL
C3c; Patient F, 200 mg TID, Day 15 Taper
  uC3c: 24.2 ng/mL
C3c; Patient F, 200 mg TID, Day 16 Taper
  uC3c: 30.0 ng/mL
C3c; Patient F, 200 mg TID, Day 17 Taper
  uC3c: 32.4 ng/mL
C3c; Patient F, 200 mg TID, Day 21
  uC3c: 64.0 ng/mL
C3c; Patient F, 200 mg TID, Day 24
  uC3c: 34.4 ng/mL
C3c; Patient F, 200 mg TID, Day 28
  uC3c: 41.5 ng/mL
C3c; Patient F, 200 mg TID, Day 49
  uC3c: 154.5 ng/mL
C3c; two-week treatment
  Urinary C3c levels: reduced significantly
  Urinary C3c levels normalized to urinary creatinine or albumin: reduced significantly
